The values that follow come from patent US10836756B2, “Crystalline salts of peptide epoxyketone immunoproteasome inhibitor” (KEZAR LIFE SCIENCES, priority 2016, dated 2020).

Structures can show the parent of a compound that is named as a salt. Where two headings read alike, the source gives them in different places. Some results are limits rather than exact numbers.

For data set [1] the following is noted: Olovson et al. 1986, Kumar et al. 2013; cited from earlier work.
Data set [2] in a line: Solubility of compound G (amorphous) and its monomaleate salt (crystalline) in water, buffers and solvents. It counts as physicochemical.
A short description of data set [3]: pKa of the monomaleate salt. Format: physicochemical.
The nature of data set [4]: Stability of Form A and its freebase, one month storage. It counts as physicochemical. The following applies: for % Decomposition: 1 month. The method, then:
The stability of Form A and its freebase was tested at ambient conditions (25° C. and 40% relative humidity, “RH”), and at elevated temperature and humidity (40° C. and 75% RH) over the duration of one month.

In the case of `C=CCc1ccccc1OCC(O)CNC(C)C` (stereo not drawn) [alprenolol], the “solubility of the maleate salt compared to other counterions, such as fumarate” value in data set [1] is listed as “decreased solubility”.
Broadly, the solubility is the dissolved amount per volume that the medium holds. A word on the pKa: it is the negative logarithm of the acid dissociation constant. In the case of `COc1ccc([C@@H](O)[C@H](NC(=O)[C@H](C)NC(=O)CN2CCOCC2)C(=O)N[C@@H](CC2=CCCC2)C(=O)[C@@]2(C)CO2)cc1` [monomaleate salt of compound G], the solubility in data set [2] (2-methyltetrahydrofuran, organic solvent or mixture, 2-Methyltetrahydrofuran, crystalline, read-out: Solubility) is 1760 µg/mL; in data set [2] (acetone, organic solvent or mixture, Acetone, crystalline, read-out: Solubility), 3190 µg/mL; in data set [2] (acetonitrile, organic solvent or mixture, Acetonitrile (ACN), crystalline, read-out: Solubility), 1300 µg/mL; in data set [2] (aqueous medium, aqueous, read-out: aqueous solubility), greater than 100000 µg/mL; in data set [2] (dichloromethane, organic solvent or mixture, Dichloromethane (DCM), crystalline, read-out: Solubility), 210 µg/mL; in data set [2] (ethanol, organic solvent or mixture, Ethanol (EtOH), crystalline, read-out: Solubility), 6970 µg/mL. Further, the solubility in data set [2] (ethyl acetate, organic solvent or mixture, Ethyl acetate (EA), crystalline, read-out: Solubility) turned out to be 470 µg/mL; in data set [2] (isopropanol, organic solvent or mixture, Isopropanol (IPA), crystalline, read-out: Solubility) it was 3280 µg/mL; in data set [2] (isopropyl acetate, organic solvent or mixture, Isopropyl acetate (IPAc), crystalline, read-out: Solubility), 130 µg/mL; in data set [2] (methanol, organic solvent or mixture, Methanol (MeOH), crystalline, read-out: Solubility) it was 42100 µg/mL; in data set [2] (methyl tert-butyl ether, organic solvent or mixture, Methyl tert-butyl ether (MTBE), crystalline, read-out: Solubility), 170 µg/mL; in data set [2] (tetrahydrofuran, organic solvent or mixture, Tetrahydrofuran (THF), crystalline, read-out: Solubility), 1960 µg/mL. Besides, the solubility in data set [2] (toluene, organic solvent or mixture, Toluene, crystalline, read-out: Solubility) was 20 µg/mL; in data set [2] (water, ambient temperature (e.g., 20° C. to 25° C.), read-out: solubility in water), greater than 100000 µg/mL. Moreover, in data set [3], the pKa came to 5.
As to `COc1ccc([C@@H](O)[C@H](NC(=O)[C@H](C)NC(=O)CN2CCOCC2)C(=O)N[C@@H](CC2=CCCC2)C(=O)[C@@]2(C)CO2)cc1` [compound G, (2S,3R)—N-[(2S)-3-(cyclopent-1-en-1-yl)-1-[(2R)-2-methyloxiran-2-yl]-1-oxopropan-2-yl]-3-hydroxy-3-(4-methoxyphenyl)-2-[(2S)-2-[2-(morpholin-4-yl)acetamido]propanamido]propanamide], the “% Decomposition” value is 1.9% in data set [4] (25° C./40% RH, lot 1); 1.6% in data set [4] (25° C./40% RH, lot 2); 1.4% in data set [4] (25° C./40% RH, lot 3); 67.5% in data set [4] (40° C./75% RH, lot 1); 28.8% in data set [4] (40° C./75% RH, lot 2); 21.1% in data set [4] (40° C./75% RH, lot 3). Also, the “% Purity at 1 Month” value in data set [4] (25° C./40% RH, lot 1 (purity at t = 0 95.1)) turned out to be 93.2%; in data set [4] (25° C./40% RH, lot 2 (purity at t = 0 85.6)), 84.0%; in data set [4] (25° C./40% RH, lot 3 (purity at t = 0 93.7)), 92.3%; in data set [4] (40° C./75% RH, lot 1 (purity at t = 0 95.1)) it was 92.3%; in data set [4] (40° C./75% RH, lot 2 (purity at t = 0 85.6)), 92.3%; in data set [4] (40° C./75% RH, lot 3 (purity at t = 0 93.7)), 72.5%. Further, the “stability at elevated temperature and humidity (in words)” value in data set [4] (40° C. and 75% RH, one month) was “rapid decomposition”. The solubility in data set [2] (25 mM Na citrate buffer, pH 4.9, aqueous buffer, 25 mM Na Citrate, pH 4.9, amorphous, read-out: Solubility) turned out to be 46000 µg/mL; in data set [2] (25 mM Na citrate buffer, pH 5.1, aqueous buffer, 25 mM Na Citrate, pH 5.1, amorphous, read-out: Solubility), 32000 µg/mL; in data set [2] (25 mM Na citrate buffer, pH 5.2, aqueous buffer, 25 mM Na Citrate, pH 5.2, amorphous, read-out: Solubility), 24800 µg/mL; in data set [2] (25 mM Na citrate buffer, pH 5.4, aqueous buffer, 25 mM Na Citrate, pH 5.4, amorphous, read-out: Solubility), 19500 µg/mL; in data set [2] (25 mM Na citrate buffer, pH 5.8, aqueous buffer, 25 mM Na Citrate, pH 5.8, amorphous, read-out: Solubility), 11200 µg/mL; in data set [2] (25 mM Na citrate buffer, pH 6.3, aqueous buffer, 25 mM Na Citrate, pH 6.3, amorphous, read-out: Solubility), 9800 µg/mL. For the same molecule, the solubility in data set [2] (25 mM Na citrate buffer, pH 6.8, aqueous buffer, 25 mM Na Citrate, pH 6.8, amorphous, read-out: Solubility) was 8800 µg/mL; in data set [2] (0.9% saline, pH 7.6, saline or isotonic, 0.9% saline, pH 7.6, amorphous, read-out: Solubility) it was 9400 µg/mL; in data set [2] (10% EtOH, aqueous with cosolvent or surfactant or cyclodextrin, EtOH, 10%, amorphous, read-out: Solubility), 13700 µg/mL; in data set [2] (10% NMP, aqueous with cosolvent or surfactant or cyclodextrin, NMP, 10%, amorphous, read-out: Solubility) it was 28800 µg/mL; in data set [2] (10% PEG 400, aqueous with cosolvent or surfactant or cyclodextrin, PEG 400, 10%, amorphous, read-out: Solubility), 11800 µg/mL; in data set [2] (10% PG, aqueous with cosolvent or surfactant or cyclodextrin, PG, 10%, amorphous, read-out: Solubility), 12100 µg/mL. The solubility in data set [2] (10% glycerol, aqueous with cosolvent or surfactant or cyclodextrin, glycerol, 10%, amorphous, read-out: Solubility) is 8600 µg/mL; in data set [2] (33% EtOH, aqueous with cosolvent or surfactant or cyclodextrin, EtOH, 33%, amorphous, read-out: Solubility) it was 20000 µg/mL; in data set [2] (33% NMP, aqueous with cosolvent or surfactant or cyclodextrin, NMP, 33%, amorphous, read-out: Solubility), greater than 100000 µg/mL; in data set [2] (33% PEG 400, aqueous with cosolvent or surfactant or cyclodextrin, PEG 400, 33%, amorphous, read-out: Solubility), 17400 µg/mL; in data set [2] (33% PG, aqueous with cosolvent or surfactant or cyclodextrin, PG, 33%, amorphous, read-out: Solubility), 20500 µg/mL; in data set [2] (33% glycerol, aqueous with cosolvent or surfactant or cyclodextrin, glycerol, 33%, amorphous, read-out: Solubility), 5800 µg/mL. Besides, the solubility was greater than 100000 µg/mL in data set [2] (67% EtOH, aqueous with cosolvent or surfactant or cyclodextrin, EtOH, 67%, amorphous, read-out: Solubility); greater than 100000 µg/mL in data set [2] (67% NMP, aqueous with cosolvent or surfactant or cyclodextrin, NMP, 67%, amorphous, read-out: Solubility); greater than 50000 µg/mL in data set [2] (67% PEG 400, aqueous with cosolvent or surfactant or cyclodextrin, PEG 400, 67%, amorphous, read-out: Solubility); greater than 100000 µg/mL in data set [2] (67% PG, aqueous with cosolvent or surfactant or cyclodextrin, PG, 67%, amorphous, read-out: Solubility); 5400 µg/mL in data set [2] (67% glycerol, aqueous with cosolvent or surfactant or cyclodextrin, glycerol, 67%, amorphous, read-out: Solubility); greater than 100000 µg/mL in data set [2] (100% EtOH, organic solvent or mixture, EtOH, 100%, amorphous, read-out: Solubility). Besides, the solubility in data set [2] (100% NMP, organic solvent or mixture, NMP, 100%, amorphous, read-out: Solubility) is greater than 100000 µg/mL; in data set [2] (100% PEG 400, organic solvent or mixture, PEG 400, 100%, amorphous, read-out: Solubility) it was greater than 50000 µg/mL; in data set [2] (100% PG, organic solvent or mixture, PG, 100%, amorphous, read-out: Solubility), greater than 100000 µg/mL; in data set [2] (PBS, pH 7.2, aqueous buffer, PBS, pH 7.2, amorphous, read-out: Solubility), 7600 µg/mL; in data set [2] (glycerol, 100%, amorphous), “not soluble”; in data set [2] (water, pH 7.4, water, Water, pH 7.4, amorphous, read-out: Solubility) it was 8900 µg/mL. In addition, the solubility in data set [2] (water, read-out: solubility in water) was found to be 8900 µg/mL.
